Data on 1 substance can be found in paper PMC8810938 (Clinical & Translational Immunology, 2022).

Test [1] concerns TGF‐β1‐stimulated human fibroblasts. The test is described as follows: Induction assay: fibrotic marker mRNA. Particulars: primary human fibroblasts, TGF‐β1 5 ng mL^−1, 48 h, only at the highest test concentration 100 nM; qPCR; n = 4. The class given is cell-based. For orientation: Quantitative PCR measures a nucleic acid by following its amplification.
The target of test [2] is T1, CXCR3A‐transfected CHO cells (human CXCR3A) (Homo sapiens, UniProt P49682).
T1 sequence (P49682 1-368): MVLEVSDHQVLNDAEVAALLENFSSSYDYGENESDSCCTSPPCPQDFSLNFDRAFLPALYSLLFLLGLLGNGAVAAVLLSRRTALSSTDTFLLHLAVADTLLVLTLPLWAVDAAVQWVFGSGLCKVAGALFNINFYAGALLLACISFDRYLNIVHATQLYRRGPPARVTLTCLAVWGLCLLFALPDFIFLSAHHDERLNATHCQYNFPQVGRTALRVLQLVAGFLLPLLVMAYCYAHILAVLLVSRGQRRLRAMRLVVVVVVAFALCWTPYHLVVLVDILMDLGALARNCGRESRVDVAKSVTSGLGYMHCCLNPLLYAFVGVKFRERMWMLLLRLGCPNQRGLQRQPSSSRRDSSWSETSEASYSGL
Particulars: CXCR3‐transfected CHO cells; n = 4; cited from earlier work.

Turning to “CXCL9(1–103): authentic full‐length human CXCL9 chemokine of 103 amino acids (Peprotech)”, the “collagen III mRNA expression” value in test [1] was “significant reduction”. Also, the calcium response in test [2] was 598.1 ± 22.9 nM.
